From US20230218577A1, “USE OF HEAT SHOCK PROTEIN INHIBITORS FOR THE TREATMENT OF NEURODEVELOPMENTAL DISORDERS” (The Children's Medical Center Corporation, priority 2020, published 2023) come the findings set out here.

For this assay, the system named is pS6, IGF-IRβ, Akt, PRAS40, Raptor in Tsc2-sh neurons. Kind of assay: Western blot of PI3K/Akt/mTORC1 signaling components in Tsc2-sh neurons. The assay is classed as cell-based, rat. The source says:
Hsp90 is a molecular chaperone that protects its client proteins from degradation, and many of its substrates are oncogenic proteins (Neckers and Workman, Hsp90 molecular chaperone inhibitors: are we there yet?; Clin Cancer Res 18, 64-76 (2012)). Among these, insulin-growth factor-1 Receptor β (IGF-IRβ), Akt, and Raptor are components of the PI3K/mTOR pathway that have been identified as Hsp90 substrates in non-neuronal cells (Basso et al., Akt forms an intracellular complex with heat shock protein 90 (Hsp90) and Cdc37 and is destabilized by inhibitors of Hsp90 function; J Biol Chem 277, 39858-39866 (2002); Ohji et al., Suppression of the mTOR-raptor signaling pathway by the inhibitor of heat shock protein 90 geldanamycin; J Biochem 139, 129-135 (2006)). To test whether Hsp90 affects mTORC1 activity through regulation of IGF-IRβ, Akt, or Raptor in neurons, the expression of these potential client proteins were examined in Tsc2-knockdown neurons treated with vehicle or with a 7-point dose-response curve at a three-fold dilution of 17-AGG (assay endpoint DIV20).
To investigate whether Hsp90 could function as a chaperone of IGF-IRβ in neurons, wild-type neurons were treated with 17-AGG and then proteasomal degradation was inhibited using bortezomib (BTZ). As expected, Hsp90 inhibition led to reduced IGF-IRβ levels, and this reduction was prevented with BTZ. […] Without wishing to be bound by theory, it is likely that Hsp90 protects IGF-IRβ against proteasomal degradation. To test whether IGF-IRβ protein stability and signaling may represent a potential mechanism by which Hsp90 inhibition reduces mTORC1 activity, IGF-IRβ activation was assessed by autophosphorylation at Tyr1135/1136. Consistent with mTOR-dependent negative feedback on the RTK/Akt pathway (Zhang et al., S6K1 regulates GSK3 under conditions of mTOR-dependent feedback inhibition of Akt; Molecular cell 24, 185-197 (2006)), IGF-IRβ phosphorylation was reduced in the vehicle-treated Tsc2-sh neurons compared to controls (FIGS. 3G, J). […] (FIGS. 3G, J).
Hippocampi and cortexes from 18-day-old rat embryos (Charles River CD1) were isolated under the microscope and collected in Hank's Balanced Salt Solution containing 10 mM MgCl2, 1 mM kynurenic acid, 10 mM HEPES and penicillin/streptomycin. After 5 min dissociation at 37° C. in 30 U/ml of papain, neurons were mechanically triturated and plated in Neurobasal (NB) medium containing B27 supplement, 2 mM L-glutamine, penicillin/streptomycin and primocin (NB/B27). Biochemical analysis was performed on cortical cultures plated at 1×10^6 cells/well onto six-well plates. Immunofluorescent analysis was performed on hippocampal cultures plated at 20×10^3 cells/well onto 96-well plates. All plates were coated with 20 μg/ml poly-D-lysine (PDL).
Protein extracts were lysed in 1×SDS (22 mM Tris-HCl pH 6.8, 4% Glycerol, 0.8% SDS, 1.6% β-mercaptoethanol, bromphenol blue) sample buffer, heated to 95° C. for 5 min and stored frozen. Before being subjected to discontinuous gel electrophoresis, equal amounts of all protein lysates were verified by Coomassie gel staining. For immunoblotting, equal amounts of protein lysates were subjected to SDS-PAGE, transferred to Immobilon-P Millipore and incubated in LI-COR blocking solution at RT for 2 hrs. Primary and secondary antibodies were diluted in LI-COR blocking solution to the appropriate concentrations. LI-COR IRDye secondary antibodies were used. All images were acquired using the LI-COR Odyssey Classic imager and associated Image Studio Lite analysis software (version 5.2.5). Quantification of protein expression was performed by densitometry scans of immunoblots using LI-COR Odyssey imaging system.
Western blot quantifications were performed by protein normalization using GAPDH as loading control. Level of phosphorylated proteins was expressed as the ratio of phosphorylated/total level after GAPDH normalization. […]

Setting [1] is: Tsc2-sh neurons, 7-point dose-response, assay endpoint DIV20.
Setting [2] is: Tsc2-sh neurons, 17-AGG dose of 4 μM, assay endpoint DIV20.
The mark [3] stands for this setting: Tsc2-sh neurons, dose curve 24 hrs between DIV19-20.

In the case of `C=CCNC1=C2C[C@@H](C)C[C@H](OC)[C@H](O)[C@@H](C)/C=C(\C)[C@H](OC(N)=O)[C@@H](OC)C=C/C=C(\C)C(=O)NC(=CC1=O)C2=O` [17-AGG, 3 S,5S,6R,7S,8E,10R,11S,12E,14E)-21-(allylamino)-6-hydroxy-5,11-dimethoxy-3,7,9,15-tetramethyl-16,20,22-trioxo-17-azabicyclo[16.3.1]docosa-8,12,14,18,21-pentaen-10-yl] carbamate], under setting [1], the Akt levels result is recorded as “no effect” and the Raptor levels result is given as “no effect”. Also, under setting [2], the pS6 phosphorylation result is “significantly reduced” and the “total IGF-IRβ protein level” value was “significantly reduced”. Also, under setting [3], the “phosphorylation of Akt” value was “reduced” and the “phosphorylation of PRAS40” value is “reduced”. For the setting “Tsc2-sh neurons, dose curve, DIV19-20”, the “phosphorylation of IGF-IRβ receptor (Tyr1135/1136)” value is on record as “further reduced”. Also, the mTORC1 activation entry (Tsc2 knockdown cultures at DIV13, four days of 17-AGG 5-450 nM) is on record as “without any effect”.
